US11673891B2, “Imidazopyrimidine compounds and uses thereof” (Dana-Farber Cancer Institute, Inc., priority 2017, dated 2023)
Entries after “also recorded” stand apart in the source; their conditions may differ.

Legend:
[1] = test system: Splenocytes isolated from 6-8 weeks old C57BL/6 mice; test: Mouse splenocyte in vitro stimulation, murine IL-6 by ELISA; type: cell-based; settings: C57BL/6 splenocytes, 33 μM, 18 hours
Protocol: Splenocytes isolated from 6-8 weeks old C57BL/6 mice and human adult PBMCs were stimulated for 18 hours with compound 037 and its analogs at 33 μM. Production of murine IL-6 and human TNF was assessed in cell-free supernatants by ELISA. Results are presented as scatter plot in which each dot represents median production of human TNF (N=3-5) or murine IL-6 (N=6) for each compound.
Spleens were harvested from 6-8 weeks old C57BL/6 mice. For splenocyte isolation, spleens were mashed through a […] strainer, washed with PBS, and erythrocytes were lysed with 2 min of incubation in ammonium chloride-based lysis buffer (BD Biosciences). Cells were then counted and plated 2×10^6 per well (round bottom 96-well plate) in 200 μl of complete culture medium (RPMI 1640 plus 10% heat-inactivated fetal bovine serum [FBS, GE Healthcare HyClone], 50 μM 2-mercaptoethanol, 2 mM 1-glutamine, 100 U/ml penicillin/streptomycin [Gibco ThermoFisher Scientific]) with 0.66 μl of DMSO-dissolved compounds (10 mM) in order to achieve a final compound concentration of 33 μM. After 18 hours of incubation (37° C., 5% CO2), plates were spun down (500×g, room temperature, 5 minutes) and supernatants were harvested for further analysis.

human adult PBMCs = test: TNF production by ELISA after stimulation of human adult PBMCs; type: cell-based; settings: 33 μM, 18 hours
Protocol: Table 1. Activity of Exemplary Imidazopyrimidine Compounds on Stimulating TNF Production in PBMCs as Compared to Compound R848 Table 1 provides the activity of exemplary compounds on stimulating TNF production in PBMCs as compared to the benchmark compound R848. Specifically, TNF production was measured by ELISA after stimulation of adult PBMCs with compound 037 analog family or the compound R848 at 33 μM for 18 hours. Analogs are ranked top to bottom by median percentage TNF production (TNF %) as compared to R848 (N=3-5). The compounds have been classified in the following categories according to TNF %: high activity—class A: TNF %>15%; medium activity—class B: 1%<TNF %≤15%; low activity—class C: TNF %≤1%.
ELISAs and Multiplex-Analyte Assays. Supernatants derived from human PBMCs and DC stimulations were assayed by ELISA for TNF (ThermoFisher Scientific; Waltham, Mass., USA). Cytokine and chemokine expression profiles (e.g., IFNγ, IL-9, IL-10, IL-12 (p70), IL-13, IL-1β, IL-23, IL-27, IL-28A, IL-33, IL-6, MIP-3α/CCL20, and TNF) in cell culture supernatants were measured using a customized Milliplex® Human Th17 Magnetic Bead Panel according to the manufacturer's instructions (Millipore, Chicago, Ill., USA). Assays were read and analyzed on the Luminex® 100/200™ System and xPOTENT® software (Luminex, Austin, Tex.). A minimum threshold was set at the minimum detectable concentration for each individual assay, defined as three standard deviations above the mean background.
PBMCs were isolated from blood using a Ficoll density gradient. PBMCs either used fresh or were stored at 5×10^7 cells per vial in 1 mL RPMI containing 20% autologous plasma and 10% DMSO at −80° C. until use. Stimulation plates were prepared by transferring 0.66 μl of DMSO-dissolved compounds (10 mM) to each well of a round bottom 96-well plate. PBMCs isolated from human adult donors were resuspended at a concentration of 10^5 cells/200 μl of RPMI supplemented with 10% of platelet-poor plasma. 200 μl of the cell suspension were transferred to each well resulting in a final compound concentration of […]. After about 18 hours of incubation (37° C., 5% CO2), plates were spun down (500×g, room temperature, 5 minutes) and supernatants were harvested for further analysis.

Cc1cnc2nc(-c3ccc(C)c(NC(=O)c4ccccc4C(F)(F)F)c3)cn2c1 [FRF-02-144-3]
Production of murine IL-6 by splenocytes (in words) [1]: activates both human PBMCs and mouse splenocytes; also recorded: active on both human and murine cells
TNF (Median) (human adult PBMCs; adult PBMCs, ELISA, median, N=3-5, unit not given (FIG. 6B/7B legends: TNF concentration in ng/ml)): 5.397
Activity class (human adult PBMCs; class according to TNF % as compared to R848, adult PBMCs): A (high activity—class A: TNF %>15%)
Production of human TNF by PBMCs (in words) (human adult PBMCs; human adult PBMCs, ELISA): activates both human PBMCs and mouse splenocytes; also recorded: active on both human and murine cells
TNF % (Median) (human adult PBMCs; median percentage TNF production as compared to R848, adult PBMCs, N=3-5): 99.81%
